{"source": "paper PMC12566593", "about": "“Effects of Different Centrifugation Parameters on Equilibrium Solubility Measurements” (Methods and Protocols, 2025)", "key": {"[1]": {"assay": "Equilibrium solubility, saturation shake-flask, sedimentation as phase separation (reference, standard protocol)", "conditions": "for solubility: Britton-Robinson buffer", "text": "BR buffers were used in the experiments across a pH range of 2.0 to 11.0, prepared by combining 0.04 M acetic acid, 0.04 M phosphoric acid, and 0.04 M boric acid. The mixture was then titrated with varying amounts of 0.2 M NaOH to achieve the desired pH values. The ionic strength was kept constant (I = 0.15) across all pH values using appropriate amounts of inert KCl. […] Different amounts of 0.2 M NaOH were used to adjust the pH of the buffer to the desired values, between pH 2.0 and 11.0.\n(§1) Samples were stirred using the μDISS Profiler™ (Pion Inc., Billerica, MA, USA) at 150 rpm [33], the pH was checked after 1 h and adjusted, if necessary, with either 0.1 M HCl or 0.1 M NaOH. To confirm the reliability of the results, the pH was measured again at the end of each experiment. Prior to centrifugation, two different approaches were applied: stirring samples for 6 h, followed by 18 h of sedimentation, according to the standardized protocol [18], or continuously stirring samples for 24 h, without a subsequent sedimentation step.\n(§2) After centrifugation, the concentration was measured by the μDISS Profiler™ (Pion Inc., Billerica, MA, USA) equipped with UV probes. The aliquots were diluted with the buffer solution if necessary. The 2nd derivative method was utilized in the AuPRO™ 7.1 software (Pion Inc., Billerica, MA, USA) to determine the concentration of the samples after a calibration was conducted for each substance. Calibration was performed by adding small volumes of methanolic stock solutions with known concentrations to buffer solutions of defined pH. Separate calibration curves were prepared for each UV probe.\nAt least three parallel measurements were carried out for each compound with each combination of variables (Table S1)."}, "[2]": {"assay": "Equilibrium solubility, saturation shake-flask, centrifugation as phase separation", "conditions": "for solubility thermodynamic / solubility thermodynamic at 24 h: Britton-Robinson buffer; for solubility thermodynamic: sedimented before centrifugation; for solubility thermodynamic at 24 h: continuously stirred, no sedimentation; for Centrifugation: Result Range: % of reference, all centrifugation protocols", "experimental": "To determine equilibrium solubility, the samples were added to Britton-Robinson buffer solutions (BRB) adjusted to specific pH values, obtaining a heterogenous system (Table S2). BR buffers were used in the experiments across a pH range of 2.0 to 11.0, prepared by combining 0.04 M acetic acid, 0.04 M phosphoric acid, and 0.04 M boric acid. The mixture was then titrated with varying amounts of 0.2 M NaOH to achieve the desired pH values. The ionic strength was kept constant (I = 0.15) across all pH values using appropriate amounts of inert KCl. […] The exception was progesterone, a neutral molecule, for which only a single pH condition was necessary. […] This strategy enabled a more comprehensive assessment of how centrifugation parameters influence solubility. Different amounts of 0.2 M NaOH were used to adjust the pH of the buffer to the desired values, between pH 2.0 and 11.0.\nas §1\nFrom each sample, aliquots of 10 mL were transferred into centrifugation tubes and centrifuged using a Sartorius 2–16P type centrifuge.\nas §2\nAt least three parallel measurements were carried out for each compound with each combination of variables (Table S1). Equilibrium solubility measurements using centrifugation were compared to those obtained by using only sedimentation."}, "[3]": {"conditions": "cited from earlier work; for Filtration: Result Range: % of reference, all filters"}, "[4]": {"assay": "Ionization state calculated from pKa and buffer pH", "assay_type": "physicochemical", "conditions": "pH 6.4", "text": "Depending on the pH, the molecule exists as the neutral acid (H2A), monoanion (HA^−), or dianion (A^2−). […] These values were derived from the mole fraction (x) of the various species, based on the compound’s known pKa values and the corresponding buffer pH (Equations (3)–(6))."}}, "note": "Counter-ions that a name gives are not always drawn. Like-named read-outs stand apart in the source and are kept apart here."}
{"smiles": "COc1ccc(Cc2nccc3cc(OC)c(OC)cc23)cc1OC", "note": "[PAP-HCL, papaverine hydrochloride]", "values": [{"measurement": "solubility", "setting": "[1]; 25 °C, pH 3, aqueous buffer, thermodynamic from solid, Solubility (reference), pH 3.0, 6 h stirring, 18 h sedimentation", "result": 40400, "unit": "µg/mL"}, {"measurement": "solubility", "setting": "[1]; 25 °C, pH 6.4, aqueous buffer, thermodynamic from solid, Solubility (reference), pH 6.4, 6 h stirring, 18 h sedimentation", "result": "24.2 ± 1.1", "unit": "µg/mL"}, {"measurement": "solubility", "setting": "[1]; pH 10, Solubility (reference), pH 10.0, 6 h stirring, 18 h sedimentation, 25 °C", "result": "~17", "unit": "µg/mL"}, {"measurement": "Solubility at pH 3.0 relative to pH 10.0", "setting": "[1]; fully ionized vs neutral form", "result": "around 2350 times"}, {"measurement": "Solubility (reference)", "setting": "[1]; pH 10.0, 6 h stirring, 18 h sedimentation, 25 °C", "result": "16.9 ± 1.7", "unit": "µg/mL"}, {"measurement": "Solubility higher than the reference", "setting": "[2]; 10,000 rpm for 20 min without prior sedimentation", "result": "60–70%"}, {"measurement": "solubility thermodynamic", "setting": "[2]; 25 °C, pH 3, aqueous buffer, thermodynamic from solid, Equilibrium solubility S sed, pH 3.0, 5000 rpm, 5 min", "result": 37200, "unit": "µg/mL"}, {"measurement": "solubility thermodynamic", "setting": "[2]; 25 °C, pH 3, aqueous buffer, thermodynamic from solid, Equilibrium solubility S sed, pH 3.0, 5000 rpm, 10 min", "result": 38000, "unit": "µg/mL"}, {"measurement": "solubility thermodynamic", "setting": "[2]; 25 °C, pH 3, aqueous buffer, thermodynamic from solid, Equilibrium solubility S sed, pH 3.0, 5000 rpm, 20 min", "result": 37100, "unit": "µg/mL"}, {"measurement": "solubility thermodynamic", "setting": "[2]; 25 °C, pH 3, aqueous buffer, thermodynamic from solid, Equilibrium solubility S sed, pH 3.0, 10,000 rpm, 5 min", "result": 39500, "unit": "µg/mL"}, {"measurement": "solubility thermodynamic", "setting": "[2]; 25 °C, pH 3, aqueous buffer, thermodynamic from solid, Equilibrium solubility S sed, pH 3.0, 10,000 rpm, 10 min", "result": 40900, "unit": "µg/mL"}, {"measurement": "solubility thermodynamic", "setting": "[2]; 25 °C, pH 3, aqueous buffer, thermodynamic from solid, Equilibrium solubility S sed, pH 3.0, 10,000 rpm, 20 min", "result": 39500, "unit": "µg/mL"}, {"measurement": "solubility thermodynamic at 24 h", "setting": "[2]; 25 °C, pH 3, aqueous buffer, thermodynamic from solid, Equilibrium solubility S stir, pH 3.0, 5000 rpm, 5 min", "result": 36800, "unit": "µg/mL"}, {"measurement": "solubility thermodynamic at 24 h", "setting": "[2]; 25 °C, pH 3, aqueous buffer, thermodynamic from solid, Equilibrium solubility S stir, pH 3.0, 5000 rpm, 10 min", "result": 41100, "unit": "µg/mL"}, {"measurement": "solubility thermodynamic at 24 h", "setting": "[2]; 25 °C, pH 3, aqueous buffer, thermodynamic from solid, Equilibrium solubility S stir, pH 3.0, 5000 rpm, 20 min", "result": 38400, "unit": "µg/mL"}, {"measurement": "solubility thermodynamic at 24 h", "setting": "[2]; 25 °C, pH 3, aqueous buffer, thermodynamic from solid, Equilibrium solubility S stir, pH 3.0, 10,000 rpm, 5 min", "result": 39100, "unit": "µg/mL"}, {"measurement": "solubility thermodynamic at 24 h", "setting": "[2]; 25 °C, pH 3, aqueous buffer, thermodynamic from solid, Equilibrium solubility S stir, pH 3.0, 10,000 rpm, 10 min", "result": 40400, "unit": "µg/mL"}, {"measurement": "solubility thermodynamic at 24 h", "setting": "[2]; 25 °C, pH 3, aqueous buffer, thermodynamic from solid, Equilibrium solubility S stir, pH 3.0, 10,000 rpm, 20 min", "result": 39300, "unit": "µg/mL"}, {"measurement": "solubility thermodynamic", "setting": "[2]; 25 °C, pH 6.4, aqueous buffer, thermodynamic from solid, Equilibrium solubility S sed, pH 6.4, 5000 rpm, 5 min", "result": "24.4 ± 0.48", "unit": "µg/mL"}, {"measurement": "solubility thermodynamic", "setting": "[2]; 25 °C, pH 6.4, aqueous buffer, thermodynamic from solid, Equilibrium solubility S sed, pH 6.4, 5000 rpm, 10 min", "result": "28.2 ± 0.78", "unit": "µg/mL"}, {"measurement": "solubility thermodynamic", "setting": "[2]; 25 °C, pH 6.4, aqueous buffer, thermodynamic from solid, Equilibrium solubility S sed, pH 6.4, 5000 rpm, 20 min", "result": "28.2 ± 0.73", "unit": "µg/mL"}, {"measurement": "solubility thermodynamic", "setting": "[2]; 25 °C, pH 6.4, aqueous buffer, thermodynamic from solid, Equilibrium solubility S sed, pH 6.4, 10,000 rpm, 5 min", "result": "24.4 ± 1.17", "unit": "µg/mL"}, {"measurement": "solubility thermodynamic", "setting": "[2]; 25 °C, pH 6.4, aqueous buffer, thermodynamic from solid, Equilibrium solubility S sed, pH 6.4, 10,000 rpm, 10 min", "result": "32.8 ± 0.81", "unit": "µg/mL"}, {"measurement": "solubility thermodynamic", "setting": "[2]; 25 °C, pH 6.4, aqueous buffer, thermodynamic from solid, Equilibrium solubility S sed, pH 6.4, 10,000 rpm, 20 min", "result": "31.2 ± 1.08", "unit": "µg/mL"}, {"measurement": "solubility thermodynamic at 24 h", "setting": "[2]; 25 °C, pH 6.4, aqueous buffer, thermodynamic from solid, Equilibrium solubility S stir, pH 6.4, 5000 rpm, 5 min", "result": "33 ± 2.11", "unit": "µg/mL"}, {"measurement": "solubility thermodynamic at 24 h", "setting": "[2]; 25 °C, pH 6.4, aqueous buffer, thermodynamic from solid, Equilibrium solubility S stir, pH 6.4, 5000 rpm, 10 min", "result": "32.3 ± 1.54", "unit": "µg/mL"}, {"measurement": "solubility thermodynamic at 24 h", "setting": "[2]; 25 °C, pH 6.4, aqueous buffer, thermodynamic from solid, Equilibrium solubility S stir, pH 6.4, 5000 rpm, 20 min", "result": "32.9 ± 1.26", "unit": "µg/mL"}, {"measurement": "solubility thermodynamic at 24 h", "setting": "[2]; 25 °C, pH 6.4, aqueous buffer, thermodynamic from solid, Equilibrium solubility S stir, pH 6.4, 10,000 rpm, 5 min", "result": "28.6 ± 1.55", "unit": "µg/mL"}, {"measurement": "solubility thermodynamic at 24 h", "setting": "[2]; 25 °C, pH 6.4, aqueous buffer, thermodynamic from solid, Equilibrium solubility S stir, pH 6.4, 10,000 rpm, 10 min", "result": "37.8 ± 2.07", "unit": "µg/mL"}, {"measurement": "solubility thermodynamic at 24 h", "setting": "[2]; 25 °C, pH 6.4, aqueous buffer, thermodynamic from solid, Equilibrium solubility S stir, pH 6.4, 10,000 rpm, 20 min", "result": "39.1 ± 1.34", "unit": "µg/mL"}, {"measurement": "solubility thermodynamic", "setting": "[2]; 25 °C, pH 10, aqueous buffer, thermodynamic from solid, Equilibrium solubility S sed, pH 10.0, 5000 rpm, 10 min", "result": "14.3 ± 0.17", "unit": "µg/mL"}, {"measurement": "solubility thermodynamic", "setting": "[2]; 25 °C, pH 10, aqueous buffer, thermodynamic from solid, Equilibrium solubility S sed, pH 10.0, 10,000 rpm, 5 min", "result": "16.3 ± 0.57", "unit": "µg/mL"}, {"measurement": "solubility thermodynamic", "setting": "[2]; 25 °C, pH 10, aqueous buffer, thermodynamic from solid, Equilibrium solubility S sed, pH 10.0, 10,000 rpm, 10 min", "result": "17.5 ± 0.18", "unit": "µg/mL"}, {"measurement": "solubility thermodynamic", "setting": "[2]; 25 °C, pH 10, aqueous buffer, thermodynamic from solid, Equilibrium solubility S sed, pH 10.0, 10,000 rpm, 20 min", "result": "18.7 ± 2.41", "unit": "µg/mL"}, {"measurement": "solubility thermodynamic at 24 h", "setting": "[2]; 25 °C, pH 10, aqueous buffer, thermodynamic from solid, Equilibrium solubility S stir, pH 10.0, 5000 rpm, 5 min", "result": "18.4 ± 0.28", "unit": "µg/mL"}, {"measurement": "solubility thermodynamic at 24 h", "setting": "[2]; 25 °C, pH 10, aqueous buffer, thermodynamic from solid, Equilibrium solubility S stir, pH 10.0, 10,000 rpm, 10 min", "result": "18.2 ± 1.12", "unit": "µg/mL"}, {"measurement": "solubility thermodynamic at 24 h", "setting": "[2]; 25 °C, pH 10, aqueous buffer, thermodynamic from solid, Equilibrium solubility S stir, pH 10.0, 10,000 rpm, 20 min", "result": "28.7 ± 0.7", "unit": "µg/mL"}, {"measurement": "solubility thermodynamic", "setting": "[2]; pH 10, Equilibrium solubility S sed, pH 10.0, 5000 rpm, 5 min", "result": "17 ± 0.86", "unit": "µg/mL"}, {"measurement": "solubility thermodynamic", "setting": "[2]; pH 10, Equilibrium solubility S sed, pH 10.0, 5000 rpm, 20 min", "result": "14.4 ± 0.38", "unit": "µg/mL"}, {"measurement": "solubility thermodynamic at 24 h", "setting": "[2]; pH 10, Equilibrium solubility S stir, pH 10.0, 5000 rpm, 10 min", "result": "13.3 ± 0.2", "unit": "µg/mL"}, {"measurement": "solubility thermodynamic at 24 h", "setting": "[2]; pH 10, Equilibrium solubility S stir, pH 10.0, 5000 rpm, 20 min", "result": "16.9 ± 0.79", "unit": "µg/mL"}, {"measurement": "solubility thermodynamic at 24 h", "setting": "[2]; pH 10, Equilibrium solubility S stir, pH 10.0, 10,000 rpm, 5 min", "result": "17.8 ± 0.5", "unit": "µg/mL"}, {"measurement": "Centrifugation: Closest to Reference (100%)", "setting": "[2]; pH 3.0", "result": 100, "unit": "%"}, {"measurement": "Centrifugation: Result Range", "setting": "[2]; pH 3.0", "result": "91–102%"}, {"measurement": "Centrifugation: Closest to Reference (100%)", "setting": "[2]; pH 6.4", "result": 101, "unit": "%"}, {"measurement": "Centrifugation: Result Range", "setting": "[2]; pH 6.4", "result": "101–162%"}, {"measurement": "Centrifugation: Closest to Reference (100%)", "setting": "[2]; pH 10.0", "result": 100, "unit": "%"}, {"measurement": "Centrifugation: Result Range", "setting": "[2]; pH 10.0", "result": "78–170%"}, {"measurement": "Solubility compared to the other samples", "setting": "[2]; pH 10.0, higher centrifugation speed, 20 min of centrifugation", "result": "nearly doubled"}, {"measurement": "Filtration: Result Range", "setting": "[3]; pH 3.0", "result": "85–95%"}, {"measurement": "Filtration: Closest to Reference (100%)", "setting": "[3]; pH 3.0", "result": 95, "unit": "%"}, {"measurement": "Filtration: Result Range", "setting": "[3]; pH 6.4", "result": "42–106%"}, {"measurement": "Filtration: Closest to Reference (100%)", "setting": "[3]; pH 6.4", "result": 95, "unit": "%"}, {"measurement": "Filtration: Result Range", "setting": "[3]; pH 10.0", "result": "62–95%"}, {"measurement": "Filtration: Closest to Reference (100%)", "setting": "[3]; pH 10.0", "result": 95, "unit": "%"}, {"measurement": "Fraction ionized", "setting": "[4]", "result": 50, "unit": "%"}]}
